Test results as given in publication PMC4466525, “Design, Synthesis and Structure-Activity Relationship Studies of Novel Survivin Inhibitors with Potent Anti-Proliferative Properties” (PLoS ONE, 2015).
≈ marks a conversion by molar mass, not a printed value. Like-named read-outs stand apart in the source and are kept apart here.

Columns and labels:
[1] = test system: CYP3A; assay: Cytochrome P450 inhibition, CYP3A; format: in vitro ADME; conditions: human liver microsomes 0.1 mg/mL
Method: (§1) All these experiments were performed by a contract research service company, Eurofins Panlabs Inc. (Study Number 100017964). Aqueous solubility (μM) was determined using the shake-flask method by comparing the peak area of the principal peak in a calibration standard (200 μM) containing organic solvent (methanol/water, 60/40, v/v) with the peak area of the corresponding peak in a buffer sample. Metabolic stability study was carried out by incubating compound 4g with human liver microsomes. Metabolic stability which is expressed as percent of the parent compound remaining, was calculated by comparing the peak area of the compound at the time point relative to that at time-0. The half-life (T1/2) was estimated from the slope of the initial linear range of the logarithmic curve of compound remaining (%) vs. time. In the cytochrome P450 inhibition study, human liver microsomes (0.1 mg/mL) were incubated with different substrates and compound 4g for 10 minutes. After the incubation, peak areas corresponding to the metabolite of each substrate were recorded. The percent of control activity was then calculated by comparing the peak area obtained in the presence of compound 4g to that obtained in the absence of compound 4g. Subsequently, the percent inhibition was calculated by subtracting the percent control activity from 100.

[2] = test system: PC-3; assay: Cell viability (MTS) anti-proliferative assay, PC-3; format: cell-based; conditions: PC-3 human prostate cancer, 48 h treatment, n = 4, read-out: IC50 values ± SEM, PC-3
Method: (§2) The anti-proliferative effect of UC-112 and its analogs were tested in human melanoma (A375, M14 and M14/LCC6MDR1) and human prostate cancer (PC-3) cell lines. All the cell lines were purchased from ATCC (American Type Culture Collection, Manassas, VA). The cancer cells were cultured using the supplemented cell culture medium as described before at 37°C in a humidified atmosphere containing 5% CO2. 5000 cells in logarithm growing phase were seeded overnight into each well of a 96-well plate. Then the cells were continuously incubated with sequential diluted compound solution (10 nM to 100 μM, 100 μl per well) in cell culture medium.

[3] = target: T1, CYP2C9 (Homo sapiens, UniProt P11712); assay: Cytochrome P450 inhibition, CYP2C9; format: in vitro ADME; conditions: probe diclofenac, substrate diclofenac, human liver microsomes 0.1 mg/mL, read-out: % inhibition of control values, CYP2C9
T1 construct: tissue Eurofins Panlabs Inc. (contract research service) Study Number 100017964; host or cells: human liver microsomes
T1 sequence (P11712 whole entry): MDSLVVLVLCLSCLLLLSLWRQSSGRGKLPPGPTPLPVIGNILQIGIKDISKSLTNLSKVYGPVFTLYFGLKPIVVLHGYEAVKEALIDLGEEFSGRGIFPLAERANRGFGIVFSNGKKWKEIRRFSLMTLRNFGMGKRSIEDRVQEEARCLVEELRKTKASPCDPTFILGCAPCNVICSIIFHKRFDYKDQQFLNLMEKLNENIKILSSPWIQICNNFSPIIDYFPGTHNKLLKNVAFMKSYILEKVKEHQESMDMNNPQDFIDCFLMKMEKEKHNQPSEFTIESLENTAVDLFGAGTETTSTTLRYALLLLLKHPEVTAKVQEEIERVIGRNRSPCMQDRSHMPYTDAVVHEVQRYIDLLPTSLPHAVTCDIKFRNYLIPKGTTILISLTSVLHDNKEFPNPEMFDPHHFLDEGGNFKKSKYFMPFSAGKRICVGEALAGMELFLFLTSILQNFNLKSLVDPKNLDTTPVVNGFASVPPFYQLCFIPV
Method: as §1

[4] = test system: caspase 3/7; assay: Caspase 3/7 functional assay (Caspase-Glo 3/7); format: cell-based, human; conditions: 1 μM, 24 h, A375 or PC-3 cells, N = 3
Method: The caspase 3/7 activity of cancer cells treated by DMSO control or compound of interest was analyzed using Glo Caspase-Glo 3/7 kit from Promega Corporation (Madison, WI) as per manufacturer’s instructions in similar protocol as described before. The readings of relative luminescence unit were normalized by the cell viability read from the same well determined by compatible CytoTox-Fluor Cytotoxicity assay kit (Promega, WI).

[5] = target: T2, CYP2C19 (Homo sapiens, UniProt P33261); assay: Cytochrome P450 inhibition, CYP2C19; format: in vitro ADME; conditions: probe omeprazole, substrate omeprazole, human liver microsomes 0.1 mg/mL, read-out: % inhibition of control values, CYP2C19
T2 construct: tissue Eurofins Panlabs Inc. (contract research service) Study Number 100017964; host or cells: human liver microsomes
T2 sequence (P33261 whole entry): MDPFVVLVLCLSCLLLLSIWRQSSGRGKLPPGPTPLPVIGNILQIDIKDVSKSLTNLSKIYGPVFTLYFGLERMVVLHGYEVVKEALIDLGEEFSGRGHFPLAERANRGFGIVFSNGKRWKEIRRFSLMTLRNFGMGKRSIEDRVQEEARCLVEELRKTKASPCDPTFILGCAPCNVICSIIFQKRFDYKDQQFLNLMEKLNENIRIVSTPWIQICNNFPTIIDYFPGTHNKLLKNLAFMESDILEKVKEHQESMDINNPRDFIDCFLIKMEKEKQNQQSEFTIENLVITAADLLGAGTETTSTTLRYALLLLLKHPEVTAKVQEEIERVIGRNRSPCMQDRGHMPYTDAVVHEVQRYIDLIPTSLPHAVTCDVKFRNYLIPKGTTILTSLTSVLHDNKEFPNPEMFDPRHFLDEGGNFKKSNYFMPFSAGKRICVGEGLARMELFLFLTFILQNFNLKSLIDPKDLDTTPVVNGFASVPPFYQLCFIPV
Method: as §1

[6] = Aqueous solubility, shake-flask method; format: physicochemical; conditions: PBS buffer, thermodynamic from solid, PBS pH 7.4, test concentration 200 μM
Method: as §1

[7] = test system: human melanoma A375 xenograft; assay: In vivo anti-tumor efficacy, A375 xenograft; set-up: species or system nude mouse
Text: 3 × 10^6 A375 cells were implanted into the left-side dorsal flank of each nude mouse (n = 5) to establish the human melanoma A375 tumor xenograft model as described previously. Compound 4g were first dissolved in DMSO then diluted by 2% methylcellulose PBS buffer. The proportion of DMSO in final solution was kept at lower than 5%. Mice body weight and the size of tumor were closely monitored during the 3 week continuous treatment (i.p. injection, one dose per day, five days per week). At the end point of the treatment, mice were sacrificed after anesthesia. A375 tumor tissues were isolated then freshly lysed on ice to check the targeted protein levels through Western blotting.
A375 tumor tissues collected from the in vivo efficacy study in the above were fixed in formalin phosphate buffer for one week. Then the tissues were processed to get paraffin embedded sections. TUNEL assay was performed using DeadEnd Fluorometric kit (Promega Corporation, Madison, WI) following manufacturer’s instructions. By the end of the experiment, VECTASHIELD Hard Set mounting medium with DAPI (Vector Lab, Inc., Burlingame, CA) was used to mount the tumor slides and stain the nuclei. The final slides were analyzed immediately under a fluorescence microscope (EVOS FL Cell Imaging System, Thermo Fisher Scientific Inc., NY).

[8] = target: T3, CYP2D6 (Homo sapiens, UniProt P10635); assay: Cytochrome P450 inhibition, CYP2D6; format: in vitro ADME; conditions: probe dextromethorphan, substrate dextromethorphan, human liver microsomes 0.1 mg/mL, read-out: % inhibition of control values, CYP2D6
T3 construct: tissue Eurofins Panlabs Inc. (contract research service) Study Number 100017964; host or cells: human liver microsomes
T3 sequence (P10635 whole entry): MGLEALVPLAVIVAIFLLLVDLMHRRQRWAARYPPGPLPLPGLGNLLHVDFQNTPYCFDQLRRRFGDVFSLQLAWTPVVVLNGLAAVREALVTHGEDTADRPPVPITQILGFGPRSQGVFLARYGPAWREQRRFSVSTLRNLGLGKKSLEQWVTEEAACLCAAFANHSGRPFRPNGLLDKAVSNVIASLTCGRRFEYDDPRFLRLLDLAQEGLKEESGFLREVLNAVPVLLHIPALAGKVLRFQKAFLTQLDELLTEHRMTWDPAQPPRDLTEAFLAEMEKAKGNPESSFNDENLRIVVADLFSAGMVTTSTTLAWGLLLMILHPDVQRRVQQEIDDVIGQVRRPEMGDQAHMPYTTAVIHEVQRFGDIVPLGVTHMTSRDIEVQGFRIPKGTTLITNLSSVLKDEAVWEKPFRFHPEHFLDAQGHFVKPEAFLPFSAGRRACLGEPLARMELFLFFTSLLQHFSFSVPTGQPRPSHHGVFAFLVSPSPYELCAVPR
Method: as §1

[9] = test system: M14/LCC6MDR1; assay: Cell viability (MTS) anti-proliferative assay, multidrug-resistant M14/LCC6MDR1; format: cell-based, human
Method: as §2

[10] = target: T4, survivin (Homo sapiens, UniProt O15392); assay: Western blotting of survivin level, A375 cells; format: cell-based
T4 construct: endogenous in cells; host or cells: A375 cells
T4 sequence (O15392 whole entry): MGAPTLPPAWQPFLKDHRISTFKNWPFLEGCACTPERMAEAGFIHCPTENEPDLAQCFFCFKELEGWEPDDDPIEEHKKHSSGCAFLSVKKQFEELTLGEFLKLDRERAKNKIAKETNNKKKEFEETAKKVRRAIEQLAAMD
Method: Lysates of A375 cells treated by the compound solution for 24 h were used to determine the change of IAP protein levels through western blotting. Primary rabbit antibodies against survivin, XIAP, cIAP1, cIAP2, livin and GAPDH were purchased from Cell Signaling Technology, Inc. (Danvers, MA) and used according to manufacture instructions as reported previously. Protein lane intensities were quantified by ImageJ software (US National Institutes of Health, Bethesda, MD).

Structure (SMILES): CC(C)c1ccc(COCc2cc(CN3CCCC3)c(O)c3ncccc23)cc1 [4g, 5-(((4-isopropylbenzyl)oxy)methyl)-7-(pyrrolidin-1-ylmethyl)quinolin-8-ol]
- inhibition at 10 min ([1]; probe midazolam, substrate midazolam, read-out: % inhibition of control values, CYP3A (midazolam)): 3%
- inhibition at 10 min ([1]; probe testosterone, substrate testosterone, read-out: % inhibition of control values, CYP3A (testosterone)): 29%
- IC50 [2]: 700 ± 100 nM
- inhibition at 10 min [3]: 17%
- Caspase 3/7 activation relative to DMSO control group [4]: up to 4 folds
- inhibition at 10 min [5]: 45%
- solubility [6]: 149 µM (≈ 58.1 µg/mL)
- Tumor growth slower than vehicle control group, 20 mg/kg ([7]; 20 mg/kg i.p., three weeks, A375 xenograft): 53%
- Tumor growth slower than vehicle control group, 40 mg/kg ([7]; 40 mg/kg i.p., three weeks, A375 xenograft): 79%
- TUNEL assay of tumor tissues ([7]; 40 mg/kg, formalin-fixed tumor sections): widely-spread cell apoptosis
- Expression levels of survivin and XIAP protein in tumor tissues ([7]; Western blotting of A375 xenograft tumor tissues from treated groups): decreased
- Mice body weight ([7]; three weeks i.p. treatment): without causing obvious decrease of mice body weight
- inhibition at 10 min [8]: 87%
- IC50 ([9]; Homo sapiens, 48 h, multidrug-resistant M14/LCC6MDR1 melanoma, 48 h treatment, MTS, n = 4, read-out: IC50 values ± SEM, M14/LCC6MDR1): 1800 ± 400 nM
- Resistance Index ([9]; IC50 on M14/LCC6MDR1 divided by IC50 on parental M14): 2.3
- Reduction of survivin level, A375 ([10]; 300 nM, 24 h, A375 cells, lane density by ImageJ): over 50%
- IC50 values for survivin inhibition ([10]; estimated from western blotting, A375 and PC-3 cells): low nanomolar range
- Effect on survivin level, A375 ([10]; gradient increasing dose, 24 h, A375 cells): dose-dependently suppressed survivin level
